Assay results from patent publication US20100130441A1, “USE OF VITAMIN B12 FOR TREATMENT OF MUCOSAL LESIONS” (priority 2007, published 2010).
“Also recorded” adds a separate entry of the source.

Legend:
[1] = test system: geriatric patients; details: cited from earlier work
[2] = test system: pernicious anemia patients presenting with tobacco amblyopia (optic neuropathy); details: four patients; parenteral; cyanocobalamin 0.25-1 mg per month, then changed to hydroxocobalamin; cited from earlier work
[3] = cited from earlier work
[4] = series of up to 12 injections with 5 mg; cited from earlier work
[5] = test system: recurrent aphthous stomatitis (RAS) patients; assay: Clinical experience: 15 RAS patients treated with vitamin B12 over four years; assay type: in vivo, human
Description: Fifteen patients suffering from RAS were treated with vitamin B12 in our clinics over a period of four years. In most cases they have presented to the clinic with unrelated symptoms, and the oral ulcers were incidental findings on physical examination. Patients were asked whether oral ulcers were a recurring problem. Before initiating vitamin B12 therapy, a complete blood count was done and plasma vitamin B12 and folic acid levels were assessed by routine procedures.
We used one of two therapeutic regimens: • IM injections of vitamin B12 (1000 mcg weekly for the first month, and then 1000 mcg monthly as maintenance therapy) for patients with serum vitamin B12 level below 100 pg/ml, for patients with peripheral neuropathy or macrocytic anemia, and for patients coming from a low socioeconomic level (in Israel, IM vitamin B12 treatment is cheaper than oral vitamin B12). • 2. One sublingual vitamin B12 tablet (1000 mcg) per day. • No other treatment was given for RAS throughout the treatment and follow-up periods. The follow-up period ranged from 3 months to 4 years.

[6] = test system: recurrent aphthous stomatitis (RAS) patients; assay: Double-blind, placebo-controlled, randomized clinical trial of vitamin B12 in RAS; assay type: in vivo, human
[7] = test system: recurrent aphthous stomatitis (RAS) patients; details: cited from earlier work
[8] = test system: dialysis patients; details: cited from earlier work
[9] = test system: sleep-waking rhythm disorders; details: 1.5 to 3 mg/day for 8 weeks, n=13; cited from earlier work

## cyanocobalamin
[1]; 1 mg intramuscular weekly for 1 month, then monthly for minimum 6 months
  Cognitive functions: cognitive recovery in some patients
[1]; 1 mg intramuscular weekly then monthly
  Adverse effects: no adverse effects were reported
[2]
  Effect on haematological and visual abnormalities: restored the haematological, but not the visual abnormalities
[3]; Ellenbogen & Cooper, 1991
  Carcinogenic, mutagenic or teratogenic potential: no reports attributing carcinogenic or mutagenic or teratogenic potential

## hydroxocobalamin
[2]
  Effect on haematological and visual abnormalities: the visual impairment also improved
[4]
  Acne formation (cases): Ten

## vitamin B12 (cobalamin)
[5]; 2 deficient, 3 marginal, 10 normal level patients
  Outcome of treatment by initial vitamin B12 level (deficient or borderline vs normal): no difference in the outcome of treatment
[5]; 15 RAS patients, IM 1000 mcg weekly then monthly or sublingual 1000 mcg per day, mean treatment 10.8 ± 9.7 months, before treatment 1.5 ± 1.2
  Frequency of RAS during treatment (episodes/month), Mean: 0.1 ± 0.3 episodes/month
[5]; 15 RAS patients, before treatment range 0.3-4.0
  Frequency of RAS during treatment (episodes/month), Range: 0-1.0 episodes/month
[5]; IM vitamin B12
  Aphthous ulcers in two non-adherent patients once they received regular IM injections: disappeared completely
[5]; of 15 patients
  Patients reporting pronounced reduction in the frequency and severity of RAS episodes: four
[6]; double-blind, placebo-controlled, randomized
  Safety and effectiveness of vitamin B12 therapy for RAS: confirmed the safety and effectiveness; also recorded: established the safety and effectiveness
[6]; pain, number of ulcers, duration of outbreak
  Dependence of patient outcome on initial level of vitamin B12: did not depend on initial level of vitamin B12
[7]; three patients with low serum vitamin B12
  Clinical response of RAS to vitamin B12 administration: rapid improvement and complete recovery within several weeks
[7]; three patients
  Recurrence of RAS at six months' follow up: no recurrence of RAS
[8]; 2.5 mg vitamin B12 in multivitamin preparation, 3 years
  Adverse effects: no adverse effects were reported
[8]; 106 patients, multivitamin preparation with 2.5 mg vitamin B12 at end of each dialysis period during 3 years
  Serum vitamin B12 levels at the end of the treatment period: 4 times greater than normal
[9]
  Adverse effects: no adverse effects recorded
[3]; 1-5 mg every fortnight or month, up to at least 5 years, patients with compromised absorption
  Adverse effects of long-term oral and parenteral supplementation: without any identified adverse effects
[3]; healthy individuals, EC Scientific Committee on Food opinion
  Adverse effects of excess vitamin B12 intake from food or supplements: no adverse effects
[3]; oral or intramuscular dosages between 1-5 mg
  Adverse effects in replacement therapy: no supportive evidence of adverse effects
[3]; up to 1000 mcg/day orally, patients with compromised B12 absorption
  Adverse effects of prolonged oral treatment: adverse effects have not been reported
